Measurements reported in ChEMBL document CHEMBL3421567, “Non-electrophilic modulators of the canonical Keap1/Nrf2 pathway” (Bioorg Med Chem Lett, 2015).
Residues, ends and D or L forms follow the SMILES beside them.

Assays:
Type in all cases: protein assay
[1] = target: T1, Keap1/Nrf2 (Homo sapiens, UniProt Q14145+Q16236); experiment: Binding affinity to Keap1/Nrf2 complex (unknown origin) by ITC method
[2] = target: T1, Keap1/Nrf2; experiment: Binding affinity to Keap1/Nrf2 complex (unknown origin) by fluorescence polarization assay
[3] = target: T1, Keap1/Nrf2; experiment: Inhibition of Keap1/Nrf2 complex (unknown origin)

T1 sequence (Q16236 whole entry): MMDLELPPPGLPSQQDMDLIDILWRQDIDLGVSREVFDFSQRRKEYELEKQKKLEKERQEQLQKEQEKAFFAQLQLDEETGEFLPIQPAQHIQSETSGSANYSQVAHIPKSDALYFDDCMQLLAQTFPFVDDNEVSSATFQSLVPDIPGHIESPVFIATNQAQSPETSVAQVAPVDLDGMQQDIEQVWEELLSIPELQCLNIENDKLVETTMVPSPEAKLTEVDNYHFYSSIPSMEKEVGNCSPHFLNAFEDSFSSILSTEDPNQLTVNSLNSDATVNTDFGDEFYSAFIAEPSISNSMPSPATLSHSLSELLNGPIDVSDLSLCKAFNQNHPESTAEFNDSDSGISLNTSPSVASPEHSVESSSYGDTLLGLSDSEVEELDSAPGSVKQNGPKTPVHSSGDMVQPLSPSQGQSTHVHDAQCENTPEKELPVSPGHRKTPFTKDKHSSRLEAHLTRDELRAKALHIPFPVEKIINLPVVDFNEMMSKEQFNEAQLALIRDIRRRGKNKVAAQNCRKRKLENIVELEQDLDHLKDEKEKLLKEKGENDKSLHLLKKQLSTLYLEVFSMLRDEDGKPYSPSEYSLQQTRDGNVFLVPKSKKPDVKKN
T1 sequence (Q14145 whole entry): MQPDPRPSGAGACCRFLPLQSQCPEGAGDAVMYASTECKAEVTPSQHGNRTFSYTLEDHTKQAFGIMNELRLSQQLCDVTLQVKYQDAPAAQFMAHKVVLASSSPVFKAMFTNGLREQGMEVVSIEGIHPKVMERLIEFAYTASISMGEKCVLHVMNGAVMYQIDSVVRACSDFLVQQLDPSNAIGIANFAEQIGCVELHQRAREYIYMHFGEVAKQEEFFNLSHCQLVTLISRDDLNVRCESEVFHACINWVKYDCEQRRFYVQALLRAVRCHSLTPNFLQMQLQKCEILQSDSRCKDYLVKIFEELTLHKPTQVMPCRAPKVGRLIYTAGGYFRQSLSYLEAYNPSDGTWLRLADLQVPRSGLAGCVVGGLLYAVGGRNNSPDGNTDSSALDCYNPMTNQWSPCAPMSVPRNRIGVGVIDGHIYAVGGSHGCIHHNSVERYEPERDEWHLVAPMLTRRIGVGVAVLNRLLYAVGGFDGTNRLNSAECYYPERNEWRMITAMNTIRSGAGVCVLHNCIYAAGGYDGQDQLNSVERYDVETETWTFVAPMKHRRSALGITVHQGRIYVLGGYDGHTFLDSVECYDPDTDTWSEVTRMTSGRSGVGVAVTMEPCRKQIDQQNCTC

| Kd [1] [µM] | SMILES | also measured |
| --- | --- | --- |
| 1 | CC(C)C[C@H](NC(=O)[C@@H](N)CC(=O)O)C(=O)NCC(=O)O (H-Asp-Leu-Gly-OH) | – |
| – | CC[C@H](C)[C@H](NC(=O)[C@@H]1CCCN1C(=O)[C@H](CC(C)C)NC(=O)[C@H](Cc1ccccc1)NC(=O)[C@H](CCC(=O)O)NC(=O)CNC(=O)[C@@H](NC(=O)[C@H](CCC(=O)O)NC(=O)[C@H](CCC(=O)O)NC(=O)[C@H](CC(=O)O)NC(=O)[C@H](CC(C)C)NC(=O)[C@H](CCC(N)=O)NC(=O)[C@@H](N)CC(C)C)[C@@H](C)O)C(=O)N[C@@H](CCC(N)=O)C(=O)O | Kd [2]: 0.0619 µM |
| 0.005 | C[C@@H](O)[C@H](NC(=O)[C@@H](N)CCC(=O)O)C(=O)NCC(=O)N[C@@H](CCC(=O)O)C(=O)O (H-ETGE-OH) | – |
| – | Cc1cccc2c1CCN(C(=O)[C@H]1CCCC[C@H]1C(=O)O)[C@@H]2CN1Cc2ccccc2C1=O | IC50 [3]: 0.75 µM |
